The results in this text go back to ChEMBL document CHEMBL1201862, “PubChem BioAssay data set” (2004).

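Compound exposure: 48 hours, 5 concentrations, 96-well plates. The concentration for 50% growth inhibition is given as GI50.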 The source made the active and inactive calls. No stated cut-off is given here; in the data, active = GI50 up to about 1.1 µM and inactive = higher.

Test systems include A549; RPMI-8226; HCT-15; A498; Malme-3M; IGROV-1; MDA-MB-231; NCI/ADR-RES; HCC 2998; Hs-578T; M14; MCF7; KM12; MDA-N; SF-295; CAKI-1; SK-MEL-5; UO-31; COLO 205; HL-60.
Experiment in all cases: NCI anticancer screen, dose series, 48 h

Consider `C#CCn1ncc2c(SC)ncnc21`, for which the GI50 was > 100 µM (inactive) with A549; > 100 µM (inactive) in the assay on RPMI-8226; over 100 µM in the assay on HCT-15; > 100 µM (inactive) in the assay on A498; > 100 µM (inactive) in the assay on Malme-3M; > 100 µM (inactive) in the assay on IGROV-1. Moreover, the GI50 in the assay with MDA-MB-231, in the assay on NCI/ADR-RES, in the assay on HCC 2998, in the assay with Hs-578T, in the assay with M14 and with MCF7 was > 100 µM (inactive) in each case. Also, the GI50 in the assay with KM12, in the assay with MDA-N, in the assay on SF-295, in the assay on CAKI-1, with SK-MEL-5 and in the assay on UO-31 was > 100 µM (inactive) throughout. Moreover, the GI50 in the assay with COLO 205 was > 100 µM (inactive).

`COc1cc2c(cc1OCCCCCCCCCCN1C(=O)c3cccc4cccc(c34)C1=O)N=C[C@@H]1CCCN1C2=O`: the GI50 in the assay on HL-60 was 4.27 µM (inactive); in the assay with A549, 12.4 µM (inactive); in the assay on RPMI-8226 it was 1.82 µM (inactive); in the assay on HCT-15, 4.8 µM; in the assay with Malme-3M, 12 µM (inactive); with IGROV-1, 1.59 µM (inactive). The GI50 was 3.62 µM (inactive) in the assay on MDA-MB-231; 2.64 µM (inactive) in the assay with NCI/ADR-RES; 11.1 µM (inactive) with HCC 2998; 6.89 µM (inactive) in the assay on Hs-578T; 13.7 µM (inactive) in the assay on M14; 2.01 µM (inactive) in the assay with MCF7. For the same compound, the GI50 with KM12 is 16.1 µM (inactive); with MDA-N, 7.55 µM (inactive); in the assay with SF-295, 6.55 µM (inactive); in the assay on CAKI-1 it was 4.43 µM (inactive); in the assay with SK-MEL-5 it was 10.9 µM (inactive); in the assay with UO-31, 7.46 µM (inactive). The GI50 in the assay on COLO 205 was 3.52 µM (inactive).

On to `CC1(C)OC[C@@]2([C@@H]3CC[C@@H](C3)C2(C)C)N1O`, for which the GI50 in the assay with HL-60 is > 100 µM (inactive); with A549, > 100 µM (inactive); with RPMI-8226, 79.4 µM (inactive); in the assay on HCT-15 it was over 100 µM; in the assay with A498 it was > 100 µM (inactive); in the assay with Malme-3M it was 28.8 µM (inactive). Further, the GI50 in the assay with IGROV-1, in the assay on MDA-MB-231, in the assay on NCI/ADR-RES, in the assay on Hs-578T, with M14 and in the assay with MCF7 was > 100 µM (inactive) in each case. Besides, the GI50 with KM12, in the assay on MDA-N, in the assay with SF-295, with CAKI-1, in the assay with SK-MEL-5 and with COLO 205 was > 100 µM (inactive) each time.

On to `CS(=O)(=O)NC12CCC(c3ccccc31)c1ccccc12`, for which the GI50 was > 100 µM (inactive) in the assay on HL-60; > 100 µM (inactive) with A549; > 100 µM (inactive) in the assay on RPMI-8226; over 100 µM in the assay with HCT-15; > 100 µM (inactive) in the assay on A498; > 100 µM (inactive) with Malme-3M. Moreover, the GI50 in the assay with IGROV-1, in the assay on MDA-MB-231, with NCI/ADR-RES, in the assay with Hs-578T, with M14 and with MCF7 was > 100 µM (inactive) in each case. In addition, the GI50 with KM12, in the assay on MDA-N, with CAKI-1, in the assay on SK-MEL-5, with UO-31 and in the assay with COLO 205 was > 100 µM (inactive) throughout.

Regarding `CCOC(=O)NC(C(C(=O)OCC)C(=O)OCC)(C(F)(F)F)C(F)(F)F`, the GI50 with HL-60 is > 100 µM (inactive); in the assay with A549, > 100 µM (inactive); in the assay with RPMI-8226 it was > 100 µM (inactive); with HCT-15, over 100 µM; with A498, > 100 µM (inactive); in the assay with Malme-3M, > 100 µM (inactive). In addition, the GI50 in the assay on IGROV-1, in the assay with MDA-MB-231, in the assay on NCI/ADR-RES, in the assay with Hs-578T, in the assay on M14 and in the assay with MCF7 was > 100 µM (inactive) throughout. Moreover, the GI50 in the assay with KM12, with MDA-N, in the assay on SF-295, in the assay with CAKI-1, in the assay on SK-MEL-5 and in the assay with UO-31 was > 100 µM (inactive) each time. Further, the GI50 in the assay with COLO 205 was > 100 µM (inactive).

Turning to `CCOC(=O)c1nc2ccccc2nc1Oc1ccc(F)cc1`, the GI50 is > 100 µM (inactive) in the assay on A549; > 100 µM (inactive) in the assay on RPMI-8226; over 100 µM in the assay on HCT-15; > 100 µM (inactive) in the assay on A498; > 100 µM (inactive) in the assay on IGROV-1; > 100 µM (inactive) in the assay with MDA-MB-231. Moreover, the GI50 in the assay with NCI/ADR-RES was > 100 µM (inactive); in the assay with Hs-578T, 39.3 µM (inactive); in the assay on M14 it was > 100 µM (inactive); in the assay with MCF7 it was > 100 µM (inactive); with KM12, > 100 µM (inactive); with MDA-N, > 100 µM (inactive). In addition, the GI50 in the assay on SF-295 was 70.6 µM (inactive); in the assay with SK-MEL-5, > 100 µM (inactive); with UO-31 it was > 100 µM (inactive); with COLO 205, > 100 µM (inactive).

As for `Cc1nn(-c2ccccc2)c2c1C(c1cc3ccccc3nc1Cl)NC(=O)N2` (configuration not stated), the GI50 was 5.81 µM (inactive) in the assay on HL-60; 56.2 µM (inactive) with A549; 23.9 µM (inactive) with RPMI-8226; 19.8 µM in the assay on HCT-15; 21.5 µM (inactive) in the assay on A498; 20.8 µM (inactive) with Malme-3M. Also, the GI50 is 11 µM (inactive) in the assay with IGROV-1; 20.6 µM (inactive) in the assay on MDA-MB-231; 28.4 µM (inactive) in the assay on NCI/ADR-RES; 27.5 µM (inactive) with Hs-578T; 19.6 µM (inactive) in the assay with M14; 25.3 µM (inactive) with MCF7. Besides, the GI50 in the assay with KM12 is 21.2 µM (inactive); with MDA-N, 18.5 µM (inactive); with SF-295, 21.1 µM (inactive); with CAKI-1 it was 34.4 µM (inactive); in the assay with SK-MEL-5 it was 17 µM (inactive); in the assay on UO-31, 14.3 µM (inactive). In addition, the GI50 in the assay on COLO 205 is 19.5 µM (inactive).

In the case of `COc1ccc(/C=C/C(=O)/C=C/c2ccc(OC)cc2OC)c(OC)c1`, the GI50 in the assay on HL-60 is 3.13 µM (inactive); with A549 it was 14.4 µM (inactive); in the assay on RPMI-8226 it was 3.71 µM (inactive); with HCT-15 it was 3.75 µM; with Malme-3M, 4.19 µM (inactive); in the assay with IGROV-1, 10.1 µM (inactive). Besides, the GI50 is 29.9 µM (inactive) in the assay on MDA-MB-231; 8.02 µM (inactive) with NCI/ADR-RES; 3.23 µM (inactive) in the assay on HCC 2998; 26.3 µM (inactive) with Hs-578T; 7.14 µM (inactive) in the assay on M14; 2.4 µM (inactive) with MCF7. Further, the GI50 was 33.8 µM (inactive) with KM12; 2.22 µM (inactive) with MDA-N; 24.7 µM (inactive) in the assay with SF-295; 5.35 µM (inactive) with CAKI-1; 3.77 µM (inactive) with SK-MEL-5; 13.6 µM (inactive) in the assay on UO-31. The GI50 in the assay with COLO 205 was 5.61 µM (inactive).
